A short description of series [1]: Conductometric titration: limiting molar conductance and association constants. As to conditions: 298.15 K. Type of series: physicochemical. On the procedure:
Conductometric measurements were accomplished on the Cerko Lab System microtitration unit fitted with a 5-mL Hamilton’s syringe, a CD-201 conductometric cell with the constant k = 0.096 cm^−1 (HYDROMET) and a self-made measuring cell equipped with a magnetic stirrer. The conductometric electrode was standardized with conductivity standards (aqueous KCl solutions) of conductivity 84 and 200 μS/cm, purchased from Hamilton Company. The measurements were carried out at 298.15 ± 0.10 K controlled by the Lauda E100 circulation thermostat. The titrant (5 mM [Co(ODA)(H2O)] or [Ni(ODA)(H2O)3]) was added to the titrand (0–50 % v/v DMSO-H2O) both at the same mole fraction of organic solvent, in increments of 0.01 mL, with a pause of 60 s. Each titration was repeated at least three times in order to check the reproducibility of the data. The limiting molar conductance values (Λo) and the association constants (logK ass) for the nickel(II) and cobalt(II) complexes were computed using the Shedlovsky’s and Pitt’s method. The physicochemical parameters of the binary solvents used in the calculations were taken from the literature. They are collected in Table 1.
The limiting molar conductance values (Λo) and the association constants (logK ass) for the nickel(II) and cobalt(II) complexes were computed using Shedlovsky’s and Pitt’s equations and are consequently collected in Table 4.

In a further series the test system is Pseudomonas aeruginosa. The experiment in a line: Disc diffusion test. As to conditions: P. aeruginosa. The class given is cell-based.
For a further series, the system named is Escherichia coli. The experiment in a line: Disc diffusion test. Type of series: cell-based. Particulars: E. coli.
In series [2] the test system is Staphylococcus epidermidis. The experiment in a line: Disc diffusion test. The class given is cell-based. Particulars: S. epidermidis.
Setting [3] is: Pitts method, DMSO-water 0 % v/v.
Where [4] appears, read: Pitts method, DMSO-water 10 % v/v.
Where [5] appears, read: Pitts method, DMSO-water 20 % v/v.
Where [6] appears, read: Pitts method, DMSO-water 30 % v/v.
[7] abbreviates: Pitts method, DMSO-water 40 % v/v.
The mark [8] stands for this setting: Pitts method, DMSO-water 50 % v/v.
The mark [9] stands for this setting: Shedlovsky method, DMSO-water 0 % v/v.
Where [10] appears, read: Shedlovsky method, DMSO-water 10 % v/v.
Where [11] appears, read: Shedlovsky method, DMSO-water 20 % v/v.
[12] abbreviates: Shedlovsky method, DMSO-water 30 % v/v.
[13] abbreviates: Shedlovsky method, DMSO-water 40 % v/v.
Setting [14] is: Shedlovsky method, DMSO-water 50 % v/v.

For `O.O.O.O=C(O)COCC(=O)O.[Co]` [Co(ODA), [Co(ODA)(H2O)2]·H2O], the “association constant logK ass” value is given as 3.38 (±0.01) in series [1] (setting [3]); 3.51 (±0.01) in series [1] (setting [4]); 3.77 (±0.01) in series [1] (setting [5]); 3.89 (±0.01) in series [1] (setting [6]); 4.05 (±0.01) in series [1] (setting [7]); 4.32 (±0.03) in series [1] (setting [8]). Further, the “association constant logK ass” value in series [1] (setting [9]) is listed as 3.35 (±0.01); in series [1] (setting [10]), 3.49 (±0.01); in series [1] (setting [11]), 3.77 (±0.01); in series [1] (setting [12]), 3.89 (±0.01); in series [1] (setting [13]), 4.09 (±0.03); in series [1] (setting [14]), 4.22 (±0.02). Moreover, the “limiting molar conductance Λo” value was 226.58(±1.32) S cm^2 mol^−1 in series [1] (setting [3]); 173.97(±0.60) S cm^2 mol^−1 in series [1] (setting [4]); 134.29(±1.09) S cm^2 mol^−1 in series [1] (setting [5]); 92.53(±0.96) S cm^2 mol^−1 in series [1] (setting [6]); 57.02(±0.71) S cm^2 mol^−1 in series [1] (setting [7]); 29.74(±1.46) S cm^2 mol^−1 in series [1] (setting [8]). Also, the “limiting molar conductance Λo” value in series [1] (setting [9]) is reported as 223.49(±1.45) S cm^2 mol^−1; in series [1] (setting [10]), 171.55(±0.74) S cm^2 mol^−1; in series [1] (setting [11]) it was 133.47(±1.00) S cm^2 mol^−1; in series [1] (setting [12]), 92.16(±1.07) S cm^2 mol^−1; in series [1] (setting [13]), 55.24(±0.84) S cm^2 mol^−1; in series [1] (setting [14]), 28.52(±1.58) S cm^2 mol^−1. In addition, the “Zone of growth inhibition” value in the series with Pseudomonas aeruginosa (500 μg/disc) was determined as 14 mm; with Pseudomonas aeruginosa (1000 μg/disc) it was 18 mm; in the series on Escherichia coli (500 μg/disc), 12 mm; in the series with Escherichia coli (1000 μg/disc) it was 14 mm; in series [2] (100 μg/disc), 8 mm; in series [2] (500 μg/disc) it was 19 mm. Besides, the “Zone of growth inhibition” value in series [2] (1000 μg/disc) amounted to 23 mm.
With `O.O.O.O.O.O.O.O.O.O=C([O-])COCC(=O)[O-].O=C([O-])COCC(=O)[O-].[Ni+2].[Ni+2]` [Ni(ODA), [Ni(ODA)(H2O)3]·1.5H2O], the “association constant logK ass” value in series [1] (setting [3]) was 3.34 (±0.01); in series [1] (setting [4]), 3.48 (±0.01); in series [1] (setting [5]), 3.56 (±0.01); in series [1] (setting [6]), 3.75 (±0.01); in series [1] (setting [7]) it was 4.05 (±0.01); in series [1] (setting [8]), 4.17 (±0.04). For the same compound, the “association constant logK ass” value is reported as 3.33 (±0.01) in series [1] (setting [9]); 3.47 (±0.01) in series [1] (setting [10]); 3.59 (±0.01) in series [1] (setting [11]); 3.74 (±0.01) in series [1] (setting [12]); 4.05 (±0.02) in series [1] (setting [13]); 4.15 (±0.03) in series [1] (setting [14]). Further, the “limiting molar conductance Λo” value is given as 216.74(±1.08) S cm^2 mol^−1 in series [1] (setting [3]); 161.75(±0.93) S cm^2 mol^−1 in series [1] (setting [4]); 114.72(±1.55) S cm^2 mol^−1 in series [1] (setting [5]); 91.35(±1.33) S cm^2 mol^−1 in series [1] (setting [6]); 52.00(±0.50) S cm^2 mol^−1 in series [1] (setting [7]); 29.49(±0.92) S cm^2 mol^−1 in series [1] (setting [8]). The “limiting molar conductance Λo” value in series [1] (setting [9]) is reported as 216.10(±0.74) S cm^2 mol^−1; in series [1] (setting [10]), 161.00(±0.95) S cm^2 mol^−1; in series [1] (setting [11]) it was 119.83(±0.83) S cm^2 mol^−1; in series [1] (setting [12]), 90.63(±1.37) S cm^2 mol^−1; in series [1] (setting [13]) it was 51.85(±0.61) S cm^2 mol^−1; in series [1] (setting [14]), 28.80(±0.48) S cm^2 mol^−1.
`O.O.O=C([O-])COCC(=O)[O-].[O]=[V+2]` [VO(ODA), [VO(ODA)(H2O)2]]: the “Zone of growth inhibition” value in series [2] (1000 μg/disc) was found to be 12 mm.

(Values after paper PMC4352194, “Physicochemical and Biological Properties of Oxovanadium(IV), Cobalt(II) and Nickel(II) Complexes with Oxydiacetate Anions” (Biological Trace Element Research, 2014).)
